Assay results from paper PMC11643962, “Exploring 4,7-Disubstituted Pyrimido[4,5-d]pyrimidines as Antiviral and Anticancer Agents” (Molecules, 2024).
Read-outs that look alike come from different tables or passages of the source.

What was measured:
HCoV-229E = assay: Antiviral CPE reduction assay, HCoV-229E in HEL299 cells; type: cell-based, human coronavirus 229E; conditions: mean ± SD of two or three independent experiments
HCoV-OC43 = assay: Antiviral CPE reduction assay, HCoV-OC43 in HEL299 cells; type: cell-based, human coronavirus OC43; conditions: mean ± SD of two or three independent experiments
HCoV-NL63 = assay: Antiviral CPE reduction assay, HCoV-NL63 in Hep3B cells; type: cell-based, human coronavirus NL63; conditions: mean ± SD of two or three independent experiments
[1] = tested on: influenza A/H1N1 (A/Ned/378/05); assay: Antiviral CPE reduction assay, influenza A/H1N1 in MDCK cells; type: cell-based, influenza A virus; conditions: MDCK cells, CPE reduction, MTS, mean ± SD of two or three independent experiments, read-out: Antiviral Activity (EC50) Influenza H1N1
[2] = tested on: influenza A/H3N2 (A/HK/7/87); assay: Antiviral CPE reduction assay, influenza A/H3N2 in MDCK cells; type: cell-based, influenza A virus; conditions: MDCK cells, CPE reduction, MTS, mean ± SD of two or three independent experiments, read-out: Antiviral Activity (EC50) Influenza H3N2
[3] = tested on: influenza B (B/Ned/537/05); assay: Antiviral CPE reduction assay, influenza B in MDCK cells; type: cell-based, influenza B virus; conditions: read-out: Antiviral Activity (EC50) Influenza B
[4] = tested on: respiratory syncytial virus A (RSV A Long); assay: Antiviral CPE reduction assay, RSV A Long in Hep2 cells; type: cell-based; conditions: Hep2 cells, CPE reduction, MTS, mean ± SD of two or three independent experiments, read-out: Antiviral Activity (EC50) RSV A Long
[5] = tested on: herpes simplex virus-1 (HSV-1 KOS); assay: Antiviral CPE reduction assay, HSV-1 KOS in HEL299 cells; type: cell-based; conditions: mean ± SD, no unit printed on the supplement page (Table 2 of the same screen is in µM)
[6] = tested on: yellow fever virus (YFV 17D); assay: microbe, parasite or virus in culture; type: cell-based
Zika virus (ZikV mr766) = assay: Antiviral CPE reduction assay, Zika virus mr766 in VeroE6 cells; type: cell-based; conditions: mean ± SD, no unit printed on the supplement page (Table 2 of the same screen is in µM)
[7] = tested on: eight diverse human cancer cell lines
[8] = tested on: HL-60 (acute myeloid leukemia); assay: MTS proliferation assay, HL-60; conditions: read-out: Anti-Proliferative Activity (IC50) HL-60
[9] = tested on: K-562 (chronic myeloid leukemia); assay: MTS proliferation assay, K-562; conditions: read-out: Anti-Proliferative Activity (IC50) K-562
[10] = tested on: Z-138 (non-Hodgkin lymphoma); assay: MTS proliferation assay, Z-138; conditions: read-out: Anti-Proliferative Activity (IC50) Z-138
LN-229 (glioblastoma) = assay: MTS proliferation assay, LN-229; conditions: read-out: Anti-Proliferative Activity (IC50) LN-229
[11] = tested on: DND-41 (acute lymphoblastic leukemia); assay: MTS proliferation assay, DND-41; conditions: read-out: Anti-Proliferative Activity (IC50) DND-41
[12] = tested on: Capan-1 (pancreatic adenocarcinoma); assay: MTS proliferation assay, Capan-1; conditions: read-out: Anti-Proliferative Activity (IC50) Capan-1
[13] = tested on: HCT-116 (colorectal carcinoma); assay: MTS proliferation assay, HCT-116; conditions: read-out: Anti-Proliferative Activity (IC50) HCT-116
[14] = tested on: NCI-H460 (lung carcinoma); assay: MTS proliferation assay, NCI-H460; conditions: read-out: Anti-Proliferative Activity (IC50) NCI-H460
in vitro [15] = conditions: human
in vitro [16] = conditions: human; remark: listed apart in the source
in vitro [17] = conditions: dog
in vitro [18] = conditions: human; remark: listed apart in the source
in vitro [19] = conditions: African green monkey
[20] = tested on: eight diverse human cancer cell lines; assay: MTS proliferation assay, panel of eight human cancer cell lines (statements for the whole panel); conditions: 72 h, read-out: CC50 values (cytotoxic activity) in the cancer cell line panel
[21] = 72 h, MTS, mean ± SD of two independent experiments
[22] = Human coronavirus 229E, HEL 299, MTS
[23] = Betacoronavirus 1, OC43, HEL 299, MTS
[24] = human respiratory syncytial virus, HEp-2
[25] = Human alphaherpesvirus 1, HEL 299, MTS
[26] = Yellow fever virus, Vero C1008, read-out: Antiviral activity (EC50) YFV 17D

For `C=CC(=O)Nc1cccc(Nc2nc(Nc3ccc(NC4CN(CCF)C4)cc3OC)ncc2C(F)(F)F)c1` [CNX-2006, reference compound], the EC50 (HCoV-229E; MTS) was 1.8 ± 0.2 µM, the EC50 (HCoV-OC43; MTS) was 2.2 ± 0.8 µM and the EC50 (HCoV-NL63; MTS) was > 100 µM. The EC50 [1] was > 100 µM, the EC50 [2] was > 100 µM and the EC50 ([3]; MDCK cells, CPE reduction, MTS, mean ± SD of two or three independent experiments) was > 100 µM. The EC50 [4] was > 100 µM, the EC50 ([5]; MTS) was > 100 µM and the EC50 ([6]; VeroE6 cells, CPE reduction, MTS, mean ± SD, no unit printed on the supplement page (Table 2 of the same screen is in µM), read-out: Antiviral activity (EC50) YFV 17D) was > 100 µM. For the same compound, the EC50 (Zika virus (ZikV mr766); MTS) was > 100 µM, the CC50 (HEL299 cells) was 11.1 ± 1 µM and the CC50 (Hep3B cells) was 4.3 ± 1.8 µM. The CC50 (MDCK cells) was 1700 ± 400 nM, the CC50 (Hep2 cells) was 11.7 ± 0.8 µM and the CC50 (VeroE6 cells) was 9.2 ± 1.1 µM. For the same compound, the CC50 [7] was < 10 µM, the IC50 [8, 21] was 3.8 ± 1.4 µM and the IC50 [9, 21] was 11.5 ± 0.06 µM. It also gave an IC50 [10, 21] of 2.6 ± 0.5 µM, an IC50 (LN-229 (glioblastoma); [21]) of 8.2 ± 1.2 µM and an IC50 [11, 21] of 4.5 ± 0.2 µM. The IC50 [12, 21] was 1.7 ± 0.01 µM, the IC50 [13, 21] was 6.6 ± 0.7 µM and the IC50 [14, 21] was 8.7 ± 1.9 µM.
In the case of `C#Cc1cccc(Nc2ncnc3cc4c(cc23)OCCOCCOCCO4)c1` [Icotinib, icotinib, reference compound], the EC50 (HCoV-229E; [22]) is reported as > 100 µM, the EC50 (HCoV-OC43; [23]) is reported as > 100 µM and the EC50 (HCoV-NL63; Human coronavirus NL63, MTS) is reported as > 100 µM. For the same compound, the EC50 ([1]; Influenza A virus, H1N1) was > 100 µM, the EC50 ([2]; Influenza A virus, H3N2) was > 100 µM and the EC50 ([3]; Influenza B virus, MDCK cells, CPE reduction, MTS, mean ± SD of two or three independent experiments) was > 100 µM. The EC50 [4, 24] was > 100 µM, the EC50 [5, 25] was > 100 µM and the EC50 [6, 26] was > 100 µM. The EC50 (Zika virus (ZikV mr766); Zika virus, Vero C1008, MTS) was > 100 µM, the CC50 (in vitro [15]) was > 100 µM and the CC50 (in vitro [16]) was > 100 µM. The CC50 (in vitro [17]) was > 100 µM, the CC50 (in vitro [18]) was > 100 µM and the CC50 (in vitro [19]) was > 100 µM. For the same compound, the IC50 ([8]; Homo sapiens, HL-60, 72 h) was > 100 µM, the IC50 ([9]; Homo sapiens, K562, 72 h) was > 100 µM and the IC50 ([10]; Homo sapiens, Z-138, 72 h) was > 100 µM. The IC50 (LN-229 (glioblastoma); Homo sapiens, LN-229, 72 h) was > 100 µM, the IC50 ([11]; Homo sapiens, DND41, 72 h) was > 100 µM and the IC50 ([12]; Homo sapiens, CAPAN-1, 72 h) was > 100 µM. The IC50 ([13]; Homo sapiens, HCT-116, 72 h) was > 100 µM, the IC50 ([14]; Homo sapiens, NCI-H460, 72 h) was > 100 µM and the CC50 [20] was > 100 µM.
In the case of `C=CC(=O)Nc1cccc(Oc2nc(Nc3ccc(N4CCN(C)CC4)cc3OC)ncc2Cl)c1` [WZ4002, reference compound], the EC50 (HCoV-229E; [22]) is reported as 41.8 ± 9.8 µM, the EC50 (HCoV-OC43; [23]) is reported as > 100 µM and the EC50 (HCoV-NL63; Human coronavirus NL63, MTS) is reported as > 100 µM. The EC50 ([1]; Influenza A virus, H1N1) was > 100 µM, the EC50 ([2]; Influenza A virus, H3N2) was > 100 µM and the EC50 ([3]; Influenza B virus, MDCK) was > 100 µM. The EC50 [4, 24] was > 100 µM, the EC50 [5, 25] was > 100 µM and the EC50 [6, 26] was > 100 µM. The EC50 (Zika virus (ZikV mr766); Zika virus, Vero C1008, MTS) was > 100 µM, the CC50 (in vitro [15]) was > 100 µM and the CC50 (in vitro [16]) was > 100 µM. For the same compound, the CC50 (in vitro [17]) was > 100 µM, the CC50 (in vitro [18]) was > 100 µM and the CC50 (in vitro [19]) was > 100 µM. For the same compound, the IC50 ([8]; Homo sapiens, HL-60, 72 h) was > 100 µM, the IC50 ([9]; Homo sapiens, K562, 72 h) was > 100 µM and the IC50 ([10]; Homo sapiens, Z-138, 72 h) was > 100 µM. For the same compound, the IC50 (LN-229 (glioblastoma); Homo sapiens, LN-229, 72 h) was > 100 µM, the IC50 ([11]; Homo sapiens, DND41, 72 h) was > 100 µM and the IC50 ([12]; Homo sapiens, CAPAN-1, 72 h) was > 100 µM. For the same compound, the IC50 ([13]; Homo sapiens, HCT-116, 72 h) was > 100 µM, the IC50 ([14]; Homo sapiens, NCI-H460, 72 h) was > 100 µM and the CC50 [20] was > 100 µM.
